Test results as given in ChEMBL document CHEMBL1201862, “PubChem BioAssay data set” (2004).
Counter-ions that a name gives are not always drawn. Blank lines part the entries; values can stand above or below the compound they belong to. Activity calls are given as the source filed them.

What was measured:
[1] = target: Mitogen-activated protein kinase 10 (Homo sapiens, UniProt P53779); experiment: Dose response biochemical screening assay for inhibitors of c-Jun N-Terminal Kinase 3 (JNK3). [Related pubchem assays: 746 ]
[2] = target: T1, Short transient receptor potential channel 4 (Mus musculus, UniProt Q9QUQ5); experiment: mouse TRPC4 channel activators, dose response, cell-based, HEK293 TRPC4/mu-opioid, Fluo-4 calcium (AID 434937); format: functional
T1 sequence (Q9QUQ5 whole entry): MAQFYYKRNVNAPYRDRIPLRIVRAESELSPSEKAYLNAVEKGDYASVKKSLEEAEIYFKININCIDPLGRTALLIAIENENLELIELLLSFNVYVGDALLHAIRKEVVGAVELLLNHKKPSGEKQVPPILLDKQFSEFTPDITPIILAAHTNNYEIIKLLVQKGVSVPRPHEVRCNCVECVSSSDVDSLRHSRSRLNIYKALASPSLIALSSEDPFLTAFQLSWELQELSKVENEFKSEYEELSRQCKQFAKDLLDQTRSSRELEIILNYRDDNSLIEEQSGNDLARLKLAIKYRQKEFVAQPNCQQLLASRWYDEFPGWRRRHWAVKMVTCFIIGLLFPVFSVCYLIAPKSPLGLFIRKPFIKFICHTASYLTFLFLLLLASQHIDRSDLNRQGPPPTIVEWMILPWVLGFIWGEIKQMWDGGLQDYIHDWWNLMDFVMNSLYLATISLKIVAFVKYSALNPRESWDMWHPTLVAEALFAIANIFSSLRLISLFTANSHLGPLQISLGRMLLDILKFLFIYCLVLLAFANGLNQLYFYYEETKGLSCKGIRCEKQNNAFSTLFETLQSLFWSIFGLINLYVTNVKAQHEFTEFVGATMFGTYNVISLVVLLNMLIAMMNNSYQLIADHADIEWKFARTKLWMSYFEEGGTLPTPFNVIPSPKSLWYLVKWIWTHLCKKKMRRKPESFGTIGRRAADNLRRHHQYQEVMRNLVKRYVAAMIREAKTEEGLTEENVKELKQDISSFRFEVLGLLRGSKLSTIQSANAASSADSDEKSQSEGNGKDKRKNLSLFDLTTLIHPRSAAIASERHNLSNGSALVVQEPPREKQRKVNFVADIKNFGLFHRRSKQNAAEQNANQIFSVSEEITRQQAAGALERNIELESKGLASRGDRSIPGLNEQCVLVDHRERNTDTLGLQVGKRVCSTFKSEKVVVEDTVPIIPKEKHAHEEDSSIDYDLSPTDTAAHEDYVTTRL

[3] = target: T1, Short transient receptor potential channel 4; experiment: mouse TRPC4 channel inhibitors, dose response, cell-based, HEK293 TRPC4/mu-opioid, Fluo-4 calcium (AID 434942); format: functional;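 further: potency of inhibitors blocking the TRPC4 calcium response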
[4] = target: Eukaryotic translation initiation factor 4E (Mus musculus, UniProt P63073); experiment: eIF4E–eIF4G protein interaction inhibitors, dose response, biochemical, TR-FRET (AID 855); format: functional;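 further: potency for disrupting eIF4E binding to eIF4GI seen as loss of FRET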
[5] = target: T2, DNA repair protein RAD52 homolog (Homo sapiens, UniProt P43351); format: functional, biochemical
T2 sequence (P43351 whole entry): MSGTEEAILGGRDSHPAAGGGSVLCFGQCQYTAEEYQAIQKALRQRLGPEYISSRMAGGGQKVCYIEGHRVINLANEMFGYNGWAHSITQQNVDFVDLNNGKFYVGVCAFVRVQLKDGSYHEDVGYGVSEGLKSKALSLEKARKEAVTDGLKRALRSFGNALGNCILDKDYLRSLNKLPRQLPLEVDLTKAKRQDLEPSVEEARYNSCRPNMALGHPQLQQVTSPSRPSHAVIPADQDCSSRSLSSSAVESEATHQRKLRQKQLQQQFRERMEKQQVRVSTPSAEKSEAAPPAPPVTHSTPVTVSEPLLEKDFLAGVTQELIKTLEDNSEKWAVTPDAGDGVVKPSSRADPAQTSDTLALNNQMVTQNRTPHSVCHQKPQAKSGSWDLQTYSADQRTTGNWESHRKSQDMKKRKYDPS

[6] = cytotoxicity toward NIH3T3 fibroblasts, dose response, counter-screen, cell-based, ATP luminescence, mouse fibroblasts (AID 2010); format: functional;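 further: cells exposed to compound for about 90 hours before reading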
[7] = inhibitors of intracellular T. cruzi replication, confirmation, NIH3T3 host cells, beta-gal luminescence (AID 2044); format: functional, cell-based;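 further: intracellular parasites grown in NIH/3T3 mouse fibroblasts as host cells; luminescent beta-galactosidase reporter signal from transgenic T. cruzi replicating inside host cells; inhibitors lower the luminescence signal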
INS1 = experiment: beta cell apoptosis inhibitors, cytokine rescue, dose response, luminescence, retest (AID 449756); format: functional, cell-based; conditions: Rattus norvegicus;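 further: cell death triggered by IL-1 beta plus TNF-alpha plus IFN-gamma mixture; protective hits raise ATP signal compared with cytokine alone wells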
[8] = target: T3, Trace amine-associated receptor 1 (Homo sapiens, UniProt Q96RJ0); experiment: Fluorescence-based cell-based high throughput dose response assay to identify agonists of the human trace amine associated receptor 1 (TAAR1).; format: functional
T3 sequence (Q96RJ0 whole entry): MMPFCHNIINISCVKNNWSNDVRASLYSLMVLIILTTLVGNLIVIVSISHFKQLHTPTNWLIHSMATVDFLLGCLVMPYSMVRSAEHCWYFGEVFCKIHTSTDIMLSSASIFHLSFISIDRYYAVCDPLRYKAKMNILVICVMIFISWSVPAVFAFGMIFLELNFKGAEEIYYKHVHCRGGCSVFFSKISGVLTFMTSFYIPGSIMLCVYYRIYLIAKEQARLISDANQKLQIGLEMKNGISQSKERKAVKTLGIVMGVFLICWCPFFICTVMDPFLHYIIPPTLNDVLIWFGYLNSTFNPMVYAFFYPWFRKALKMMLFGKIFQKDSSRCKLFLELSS

cells [9] = format: functional, cell-based
cells [10] = format: functional, cell-based; remark: listed apart in the source
[11] = target: T3, Trace amine-associated receptor 1; experiment: Counterscreen for agonists of the human trace amine associated receptor 1 (hTAAR1): Fluorescence-based cell-based high throughput dose response assay to identify hTAAR1 agonist that also desensitize TAAR1 receptor response.; format: functional
[12] = inhibitors of clade B AD8 Env fusion, dose response, cell-based, cherry-pick (AID 652062); format: functional;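 further: luciferase signal from cell-cell fusion driven by HIV-1 clade B AD8 Env; potency is for inhibitors of fusion seen as a drop in luminescence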
[13] = inhibitors of HIV Env-driven cell fusion, dose response, cherry-pick (AID 652057); format: functional, cell-based
[14] = ZM109 Env clade C HIV-1 fusion inhibitors, dose response, HeLa effector, CEM target cells, luciferase, cherry-pick (AID 652058); format: functional, cell-based
[15] = A549 cell cytotoxicity, dose response, cytotoxicity control, plate reader, cherry-pick, antagonist series (AID 743412); format: functional, cell-based
[16] = target: T4, DNA repair and recombination protein RAD54-like (Homo sapiens, UniProt Q92698); experiment: inhibitors of human RAD54 branch migration, confirmation, biochemical, fluorescence, cherry-picked samples, dose series (AID 651657); format: functional
T4 sequence (Q92698 whole entry): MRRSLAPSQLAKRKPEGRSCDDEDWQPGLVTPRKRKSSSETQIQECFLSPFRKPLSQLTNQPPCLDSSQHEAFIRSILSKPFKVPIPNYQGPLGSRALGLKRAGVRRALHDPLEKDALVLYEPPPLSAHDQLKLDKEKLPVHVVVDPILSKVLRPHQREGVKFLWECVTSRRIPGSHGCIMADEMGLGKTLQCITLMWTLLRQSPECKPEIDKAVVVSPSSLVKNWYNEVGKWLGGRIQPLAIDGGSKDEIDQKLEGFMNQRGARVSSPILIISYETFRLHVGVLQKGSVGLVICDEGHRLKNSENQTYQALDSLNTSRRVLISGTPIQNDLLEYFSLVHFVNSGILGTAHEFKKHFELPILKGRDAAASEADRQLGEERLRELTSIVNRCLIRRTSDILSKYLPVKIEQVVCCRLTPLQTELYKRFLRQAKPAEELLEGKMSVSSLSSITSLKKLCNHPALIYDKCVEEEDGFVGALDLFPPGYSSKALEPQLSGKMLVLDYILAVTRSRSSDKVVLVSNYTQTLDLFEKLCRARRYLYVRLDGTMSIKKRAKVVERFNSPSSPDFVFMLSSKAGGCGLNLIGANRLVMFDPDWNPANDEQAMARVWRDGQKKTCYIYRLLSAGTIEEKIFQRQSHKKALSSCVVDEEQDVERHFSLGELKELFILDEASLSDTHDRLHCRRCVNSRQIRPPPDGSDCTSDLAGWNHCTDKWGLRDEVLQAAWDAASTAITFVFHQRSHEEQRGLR

Large T antigen = Large T antigen (Simian virus 40, UniProt P03070); format: functional, Betapolyomavirus macacae;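 further: Confirmatory-stage PubChem screen for compounds that inhibit SV40 T antigen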
[17] = target: FAD-linked sulfhydryl oxidase ALR (Homo sapiens, UniProt P55789); experiment: inhibitors of human ALR sulfhydryl oxidase, dose response, biochemical, H2O2 detection, luminescence, cherry-pick (AID 493248)
Sequence of FAD-linked sulfhydryl oxidase ALR (P55789 whole entry): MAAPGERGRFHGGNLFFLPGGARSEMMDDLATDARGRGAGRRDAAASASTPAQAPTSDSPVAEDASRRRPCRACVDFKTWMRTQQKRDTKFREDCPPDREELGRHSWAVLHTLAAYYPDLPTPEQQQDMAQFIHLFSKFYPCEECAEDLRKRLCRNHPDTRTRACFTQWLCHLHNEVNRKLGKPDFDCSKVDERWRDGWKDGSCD

Sequence of Mitogen-activated protein kinase 10 (P53779 whole entry): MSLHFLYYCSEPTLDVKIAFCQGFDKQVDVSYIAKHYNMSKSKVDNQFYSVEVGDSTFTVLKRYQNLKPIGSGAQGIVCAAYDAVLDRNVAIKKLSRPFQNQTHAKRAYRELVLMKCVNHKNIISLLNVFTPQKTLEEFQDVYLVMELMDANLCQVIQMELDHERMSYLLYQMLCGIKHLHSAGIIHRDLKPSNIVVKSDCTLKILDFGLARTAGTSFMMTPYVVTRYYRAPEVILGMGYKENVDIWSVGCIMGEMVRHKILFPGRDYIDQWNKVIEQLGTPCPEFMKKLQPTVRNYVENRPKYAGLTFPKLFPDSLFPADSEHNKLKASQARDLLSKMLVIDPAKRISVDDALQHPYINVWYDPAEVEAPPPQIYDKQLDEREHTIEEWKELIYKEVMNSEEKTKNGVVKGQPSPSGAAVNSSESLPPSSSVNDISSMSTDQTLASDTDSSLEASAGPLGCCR
Sequence of Large T antigen (P03070 whole entry): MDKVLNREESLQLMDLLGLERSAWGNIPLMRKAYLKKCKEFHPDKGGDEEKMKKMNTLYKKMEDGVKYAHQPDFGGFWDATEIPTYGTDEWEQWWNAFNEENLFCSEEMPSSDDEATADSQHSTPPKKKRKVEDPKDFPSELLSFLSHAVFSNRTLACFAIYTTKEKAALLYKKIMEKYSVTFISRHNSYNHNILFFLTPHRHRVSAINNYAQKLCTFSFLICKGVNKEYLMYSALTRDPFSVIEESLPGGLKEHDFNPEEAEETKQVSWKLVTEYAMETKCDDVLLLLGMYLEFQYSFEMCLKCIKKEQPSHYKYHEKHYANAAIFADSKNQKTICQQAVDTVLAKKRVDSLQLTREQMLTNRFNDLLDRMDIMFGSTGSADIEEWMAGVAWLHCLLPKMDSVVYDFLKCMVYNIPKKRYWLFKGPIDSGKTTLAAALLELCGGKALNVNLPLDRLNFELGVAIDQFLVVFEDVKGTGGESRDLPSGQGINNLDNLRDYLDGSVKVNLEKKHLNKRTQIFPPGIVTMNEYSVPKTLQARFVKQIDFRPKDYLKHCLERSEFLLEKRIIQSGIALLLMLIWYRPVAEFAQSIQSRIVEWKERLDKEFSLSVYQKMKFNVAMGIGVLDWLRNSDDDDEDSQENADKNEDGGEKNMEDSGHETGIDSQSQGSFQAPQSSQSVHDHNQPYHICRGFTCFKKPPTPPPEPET
Sequence of Eukaryotic translation initiation factor 4E (P63073 whole entry): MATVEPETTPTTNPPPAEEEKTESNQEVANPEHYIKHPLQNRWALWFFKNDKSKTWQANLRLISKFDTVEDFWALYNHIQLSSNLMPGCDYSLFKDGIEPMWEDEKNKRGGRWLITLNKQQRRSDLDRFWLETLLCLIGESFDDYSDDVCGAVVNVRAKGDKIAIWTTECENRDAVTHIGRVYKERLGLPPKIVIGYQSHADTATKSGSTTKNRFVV

SMILES: O=C(NC1CC1)C1=C[C@H](C2CCCCC2)C[C@H](OCc2ccc(CO)cc2)O1
EC50 [3]: 5.31 µM (active)
EC50 [2]: 4.22 µM (active)

SMILES: CCOC(=O)c1c(NC(=O)C[n+]2ccc(Cc3ccccc3)cc2)sc(C)c1C
AC50 [5]: 20.5 µM (active)
EC50 [6]: > 60 µM (not active)
EC50 [7]: 1.83 µM (active)
AC50 (INS1): 5.35 µM (active)

SMILES: O=C(O)C1C2C=CC(C2)C1C(=O)NCCC1=CCCCC1 (configuration not stated)
EC50 [8]: 0.916 µM (active)
EC50 (cells [9]): > 29.9 µM (inactive)
IC50 (cells [10]): > 29.9 µM (inactive)
IC50 [11]: > 29.9 µM (inactive)

SMILES: CCOC(=O)[C@]12CCCC=C1N(CCC1=CCCCC1)C(=O)[C@H](CC(=O)NCCc1ccccc1OC)C2
EC50 [8]: 3.59 µM (active)
EC50 (cells [9]): > 29.9 µM (inactive)
IC50 (cells [10]): 26.9 µM (inactive)
IC50 [11]: 5.92 µM (active)

SMILES: O=C(NCCc1ccc(O)cc1)c1[nH]c(C(F)(F)F)nc1-c1ccccc1
EC50 [8]: 0.485 µM (active)
EC50 (cells [9]): > 29.9 µM (inactive)
IC50 (cells [10]): > 29.9 µM (inactive)
IC50 [11]: 5.53 µM (active)

SMILES: C[C@@H]1CN([C@@H](C)CO)C(=O)c2ccccc2-c2ccccc2CO[C@@H]1CN(C)C(=O)Nc1ccc2c(c1)OCO2
AC50 [12]: 1.6 µM (active)
AC50 [13]: 0.318 µM (active)
AC50 [14]: 0.54 µM (active)

SMILES: COCC(=O)N[C@@H]1CC[C@@H](CC(=O)NCc2ccccc2OC)O[C@@H]1CO
AC50 [15]: > 52 µM (inactive)

SMILES: COc1ccccc1Nc1nc(NCC2CCCO2)c2ccccc2n1 (configuration not stated)
AC50 [16]: 81.9 µM (active)
EC50 [3]: 2.66 µM (active)
EC50 [6]: > 60 µM (not active)
EC50 [7]: 0.194 µM (active)

SMILES: Oc1ccc(C2CNCCc3c2cc(O)c(O)c3Cl)cc1 (configuration not stated) [FENOLDOPAM MESYLATE]
EC50 [8]: 2.7 µM (active)
AC50 [5]: 21.7 µM (active)
IC50 (Large T antigen): > 100 µM (active)
EC50 (cells [9]): > 29.9 µM (inactive)
AC50 [17]: 1.37 µM (active)
IC50 (cells [10]): > 29.9 µM (inactive)
IC50 [11]: 8.04 µM (active)

Other lines, results leading:

IC50 [1]: 49.2 µM (not active)
SMILES: O=C(CCCn1c(=S)[nH]c2ccccc2c1=O)NCc1ccco1

EC50 [2]: 2.11 µM (active)
SMILES: CN(CCc1ccccn1)C1CC(=O)N(c2ccc(Cl)cc2)C1=O (configuration not stated)

IC50 [4]: 50 µM (inactive)
SMILES: O=C(O)CSc1nnc(COc2cccc3cccnc23)n1-c1cccc(C(F)(F)F)c1

IC50 [1]: > 93.1 µM (not active)
SMILES: CCOC(=O)c1c(C)[nH]c2ccc(O)cc12

IC50 [1]: 27.7 µM (not active)
SMILES: N#CCCSc1ncnc2c1oc1ccccc12

AC50 [5]: 19.7 µM (active)
SMILES: CN1CCN(CCCC(=O)c2ccc(C3CCCC3)cc2)CC1

IC50 [1]: 56.9 µM (not active)
SMILES: Cn1nnnc1SCc1ccc(C(=O)Nc2nccs2)cc1

EC50 [2]: 0.944 µM (active)
SMILES: COc1ccc(C(CNC(=O)c2cc(SC)ccc2Cl)N(C)C)cc1 (configuration not stated)

AC50 [5]: 16.3 µM (active)
SMILES: NCCCCCC(=O)N/N=C/c1ccc2nccnc2c1
